Activity calls are given as the source filed them. The calls are words filed in the database; no cut-off is given here.
Target: Concanavalin-A (Canavalia ensiformis) (UniProt P02866)
Test: Binding affinity to jack bean concanavalin A by enzyme-linked lectin assay

Sequence of Concanavalin-A (Canavalia ensiformis) (P02866 whole entry): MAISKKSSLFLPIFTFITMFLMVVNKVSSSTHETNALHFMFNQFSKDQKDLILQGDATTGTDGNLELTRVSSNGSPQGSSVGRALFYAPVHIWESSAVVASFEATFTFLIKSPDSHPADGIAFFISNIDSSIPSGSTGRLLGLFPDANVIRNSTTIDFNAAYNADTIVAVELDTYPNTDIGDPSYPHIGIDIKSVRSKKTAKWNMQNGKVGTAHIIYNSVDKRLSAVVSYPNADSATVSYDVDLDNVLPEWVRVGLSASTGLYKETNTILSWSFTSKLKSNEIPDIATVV

SMILES | Activity
NC(=O)CCN(CCO[C@H]1O[C@H](CO)[C@@H](O)[C@H](O)[C@@H]1O)C(=O)CN(CCO[C@H]1O[C@H](CO)[C@@H](O)[C@H](O)[C@@H]1O)C(=O)CN(CCO[C@H]1O[C@H](CO)[C@@H](O)[C@H](O)[C@@H]1O)C(=O)CN(CCO[C@H]1O[C@H](CO)[C@@H](O)[C@H](O)[C@@H]1O)C(=O)CN(CCO[C@H]1O[C@H](CO)[C@@H](O)[C@H](O)[C@@H]1O)C(=O)CN(CCO[C@H]1O[C@H](CO)[C@@H](O)[C@H](O)[C@@H]1O)C(=O)CNC(=O)CCCCCNC(=O)CCCCC1SC[C@@H]2NC(=O)N[C@H]12 (stereo not given in full) | Active
NC(=O)CCN(CCO[C@H]1O[C@H](CO)[C@@H](O)[C@H](O)[C@@H]1O)C(=O)CN(CCO[C@H]1O[C@H](CO)[C@@H](O)[C@H](O)[C@@H]1O)C(=O)CN(CCO[C@H]1O[C@H](CO)[C@@H](O)[C@H](O)[C@@H]1O)C(=O)CN(CCO[C@H]1O[C@H](CO)[C@@H](O)[C@H](O)[C@@H]1O)C(=O)CN(CCO[C@H]1O[C@H](CO)[C@@H](O)[C@H](O)[C@@H]1O)C(=O)CN(CCO[C@H]1O[C@H](CO)[C@@H](O)[C@H](O)[C@@H]1O)C(=O)CNC(=O)CCCCC1SC[C@@H]2NC(=O)N[C@H]12 (stereo not given in full) | Active
NC(=O)CN(CCO[C@H]1O[C@H](CO)[C@@H](O)[C@H](O)[C@@H]1O)C(=O)CN(CCO[C@H]1O[C@H](CO)[C@@H](O)[C@H](O)[C@@H]1O)C(=O)CN(CCO[C@H]1O[C@H](CO)[C@@H](O)[C@H](O)[C@@H]1O)C(=O)CN(CCO[C@H]1O[C@H](CO)[C@@H](O)[C@H](O)[C@@H]1O)C(=O)CN(CCO[C@H]1O[C@H](CO)[C@@H](O)[C@H](O)[C@@H]1O)C(=O)CNC(=O)CCCCC1SC[C@@H]2NC(=O)N[C@H]12 (stereo not given in full) | Active
NC(=O)CN(CCO[C@H]1O[C@H](CO)[C@@H](O)[C@H](O)[C@@H]1O)C(=O)CN(CCO[C@H]1O[C@H](CO)[C@@H](O)[C@H](O)[C@@H]1O)C(=O)CN(CCO[C@H]1O[C@H](CO)[C@@H](O)[C@H](O)[C@@H]1O)C(=O)CN(CCO[C@H]1O[C@H](CO)[C@@H](O)[C@H](O)[C@@H]1O)C(=O)CN(CCO[C@H]1O[C@H](CO)[C@@H](O)[C@H](O)[C@@H]1O)C(=O)CNC(=O)CCCCCNC(=O)CCCCC1SC[C@@H]2NC(=O)N[C@H]12 (stereo not given in full) | Active
CN(C)c1cccc2c(S(=O)(=O)N(CCO[C@H]3O[C@H](CO)[C@@H](O)[C@H](O)[C@@H]3O)CC(=O)N(CCO[C@H]3O[C@H](CO)[C@@H](O)[C@H](O)[C@@H]3O)CC(=O)N(CCO[C@H]3O[C@H](CO)[C@@H](O)[C@H](O)[C@@H]3O)CC(N)=O)cccc12 | Active

Source: ChEMBL document CHEMBL1139780, “Pentamer is the minimum structure for oligomannosylpeptoids to bind to concanavalin A” (Bioorg Med Chem Lett, 2007)
